Target: T1, panel of 442 kinases (Homo sapiens, UniProt O75747)
T1 construct: purchased KINOMEscan
T1 sequence (O75747 1-1486): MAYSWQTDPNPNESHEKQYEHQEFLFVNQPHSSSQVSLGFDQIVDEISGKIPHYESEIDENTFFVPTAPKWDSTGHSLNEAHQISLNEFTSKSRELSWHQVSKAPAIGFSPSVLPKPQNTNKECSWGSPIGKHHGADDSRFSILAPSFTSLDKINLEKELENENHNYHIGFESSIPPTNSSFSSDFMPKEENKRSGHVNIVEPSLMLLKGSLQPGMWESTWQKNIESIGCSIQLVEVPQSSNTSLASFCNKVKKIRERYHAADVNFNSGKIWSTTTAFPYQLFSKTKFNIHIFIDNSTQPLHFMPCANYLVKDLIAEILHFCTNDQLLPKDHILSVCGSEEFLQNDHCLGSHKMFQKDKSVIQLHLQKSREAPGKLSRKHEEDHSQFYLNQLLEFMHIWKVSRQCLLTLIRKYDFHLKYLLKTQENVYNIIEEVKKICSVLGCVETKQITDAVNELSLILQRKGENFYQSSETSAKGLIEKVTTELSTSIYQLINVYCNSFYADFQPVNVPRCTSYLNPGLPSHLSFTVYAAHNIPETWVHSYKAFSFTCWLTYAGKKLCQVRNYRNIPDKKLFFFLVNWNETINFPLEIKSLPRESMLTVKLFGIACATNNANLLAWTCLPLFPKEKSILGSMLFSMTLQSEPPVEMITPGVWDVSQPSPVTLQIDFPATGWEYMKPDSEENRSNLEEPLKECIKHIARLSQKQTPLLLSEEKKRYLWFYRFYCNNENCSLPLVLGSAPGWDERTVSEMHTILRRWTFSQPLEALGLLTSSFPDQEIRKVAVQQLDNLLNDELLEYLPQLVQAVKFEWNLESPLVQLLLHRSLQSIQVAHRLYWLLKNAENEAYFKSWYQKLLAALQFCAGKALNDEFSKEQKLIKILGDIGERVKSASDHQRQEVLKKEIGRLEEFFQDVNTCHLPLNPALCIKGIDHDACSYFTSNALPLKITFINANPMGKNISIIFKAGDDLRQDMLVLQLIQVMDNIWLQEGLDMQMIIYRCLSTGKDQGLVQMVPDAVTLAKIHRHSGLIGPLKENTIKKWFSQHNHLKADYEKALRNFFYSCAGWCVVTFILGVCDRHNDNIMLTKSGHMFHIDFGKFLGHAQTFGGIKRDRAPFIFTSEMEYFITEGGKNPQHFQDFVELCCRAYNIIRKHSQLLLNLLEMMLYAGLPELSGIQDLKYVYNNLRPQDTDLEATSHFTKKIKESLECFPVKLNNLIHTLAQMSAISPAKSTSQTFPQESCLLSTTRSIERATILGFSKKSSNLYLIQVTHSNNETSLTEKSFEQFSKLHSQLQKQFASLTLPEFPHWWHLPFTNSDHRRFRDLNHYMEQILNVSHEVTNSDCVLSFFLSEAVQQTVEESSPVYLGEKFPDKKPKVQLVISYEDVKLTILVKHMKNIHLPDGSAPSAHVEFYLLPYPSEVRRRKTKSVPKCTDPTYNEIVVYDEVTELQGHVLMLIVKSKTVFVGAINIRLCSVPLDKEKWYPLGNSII
Type: binding
Conditions: Compound Concentration 10 µM
Description: We assessed the selectivity of members of this scaffold using the KINOMEscan methodology across a near comprehensive panel of 442 kinases [[18,27]].

Row | Compound | KINOMEscan: PIK3C2G
1 | COc1cc(C(=O)N2CCC(N3CCN(C)CC3)CC2)ccc1Nc1ncc2c(n1)N(C)c1ccccc1C(=O)N2C [15 (LRRK2-IN-1)] | 100
2 | CCOc1cc(C(=O)N2CCC(N3CCN(C)CC3)CC2)ccc1Nc1ncc2c(n1)N(C1CCCC1)c1ccccc1C(=O)N2C [Compound 26] | 99
3 | COc1cc(C(=O)N2CCC(N3CCN(C)CC3)CC2)ccc1Nc1ncc2c(n1)N(C1CCCC1)c1ccccc1C(=O)N2C [Compound 25, 11-cyclopentyl-2-((2-methoxy-4-(4-(4-methylpiperazin-1-yl)piperidine-1-carbonyl)phenyl)amino)-5-methyl-5H-benzo[e]pyrimido[5,4-b][1,4]diazepin-6(11H)-one] | 100
